Experiment [1] has as its system A549 (lung carcinoma). Briefly: In vitro antiproliferation assay, A549 cells (TABLE 1 6 point assay; TABLE 2). The experiment is classed as cell-based. Here is the method:
(§1) Certain compounds were tested against other cell types for their ability to inhibit proliferation in standard antiproliferation assays.

Experiment [2] deals with H1299 (non-small cell lung carcinoma). Briefly: In vitro antiproliferation assay, H1299 cells (TABLE 1 6 point assay; TABLE 2). Format: cell-based. The protocol:
as §1

The mark [3] stands for this setting: Homo sapiens, A549, A549 cells, 6 point assay, read-out: A549, 6pt (IC50, inhibition of proliferation).
Setting [4] is: Homo sapiens, NCI-H1299, H1299 cells, 6 point assay, read-out: H1299, 6pt (IC50, inhibition of proliferation).
Setting [5] is: Homo sapiens, A549, 6 point assay, A549 cells, read-out: IC50, A549 cells.
Setting [6] is: Homo sapiens, NCI-H1299, 6 point assay, H1299 cells, read-out: IC50, H1299 cells.
The mark [7] stands for this setting: 6 point assay, A549 cells, read-out: IC50, A549 cells.
[8] abbreviates: 6 point assay, H1299 cells, read-out: IC50, H1299 cells.

pIC50: −log10 of the molar value. Where a name gives a salt, the structure may show the parent alone. Read-outs that look alike come from different tables or passages of the source.

With `CS(=O)(=O)N1CCc2cc(Nc3ncc(F)c(N[C@H]4[C@@H](C(N)=O)[C@@H]5C=C[C@H]4C5)n3)ccc21` [compound 188, (1R,2R,3S,4S)-N4-(3-Aminocarbonylbicyclo[2.2.1]hept-5-en-2-yl)-5-fluoro-N2-[1-methylsulfonyl-2,3-dihydro-indol-5-yl]-2,4-pyrimidinediamine], the pIC50 in experiment [1] (setting [3]) and in experiment [2] (setting [4]) was at least 7.00 each time.
For `CN(C)CCN1CCOc2cc(Nc3ncc(F)c(N[C@H]4[C@@H](C(N)=O)[C@@H]5C=C[C@H]4C5)n3)ccc21` [compound 189, (1R,2R,3S,4S)-N4-(3-Aminocarbonylbicyclo[2.2.1]hept-5-en-2-yl)-5-fluoro-N2-(1-[2-(dimethylamino)ethyl]-3,4-dihydro-4H-benz[1,4]oxazin-6-yl}-2,4-pyrimidinediamine], the pIC50 in experiment [1] (setting [3]) and in experiment [2] (setting [4]) was at least 7.00 each time.
For the molecule `Cc1cc(Nc2ncc(F)c(N[C@@H]3[C@H](C(=O)NC4CC4)[C@H]4C=C[C@@H]3C4)n2)ccc1N1CCN(C)CC1` [compound 191, (1S,2S,3R,4R)-N4-[3-(N-Cyclopropyl)aminocarbonylbicyclo[2.2.1]hept-5-en-2-yl]-5-fluoro-N2-[3-methyl-4-(4-methylpiperazin-1-yl)phenyl]-2,4-pyrimidinediamine], the pIC50 is 6.00 to 7.00 in experiment [1] (setting [3]) and 5.00 to 6.00 in experiment [2] (setting [4]).
For the molecule `Cc1cc(Nc2ncc(F)c(N[C@H]3[C@@H](C(=O)NC4CCC4)[C@@H]4C=C[C@H]3C4)n2)ccc1N1CCN(C)CC1` [compound 192, (1R,2R,3S,4S)-N4-[3-(N-Cyclobutyl)aminocarbonylbicyclo[2.2.1]hept-5-en-2-yl]-5-fluoro-N2-[3-methyl-4-(4-methylpiperazin-1-yl)phenyl]-2,4-pyrimidinediamine], the pIC50 in experiment [1] (setting [3]) and in experiment [2] (setting [4]) was at least 7.00 in each case.
Regarding `Cc1cc(Nc2ncc(F)c(N[C@@H]3[C@H](C(=O)NC4CCC4)[C@H]4C=C[C@@H]3C4)n2)ccc1N1CCN(C)CC1` [compound 193, (1S,2S,3R,4R)-N4-[3-(N-Cyclobutyl)aminocarbonylbicyclo[2.2.1]hept-5-en-2-yl]-5-fluoro-N2-[3-methyl-4-(4-methylpiperazin-1-yl)phenyl]-2,4-pyrimidinediamine], the pIC50 in experiment [1] (setting [5]) is under 5.00; in experiment [2] (setting [6]) it was 5.00 to 6.00.
Consider `CN1CCN(c2ccc(Nc3ncc(F)c(NC4CCCC4C(N)=O)n3)cc2)CC1` (stereo not shown) [compound 194, N4-(2-Carboxamidocyclopentyl)-5-fluoro-N2-[4-(4-methylpiperazino)phenyl]-2,4-pyrimidinediamine], for which the pIC50 in experiment [1] (setting [5]) and in experiment [2] (setting [6]) was 6.00 to 7.00 each time.
In the case of `CN1CCN(c2cccc(Nc3ncc(F)c(NC4CCCC4C(N)=O)n3)c2)CC1` (stereo not shown) [compound 195], the pIC50 in experiment [1] (setting [5]) and in experiment [2] (setting [6]) was 6.00 to 7.00 each time.
`CC(=O)N1CCN(c2ccc(Nc3ncc(F)c(NC4CCCC4C(N)=O)n3)cc2)CC1` (stereo not shown) [compound 196, N2-[4-(4-Acetylpiperazino)phenyl]-N4-(2-carboxamidocyclopentyl)-5-fluoro-2,4-pyrimidinediamine]: the pIC50 in experiment [1] (setting [5]) and in experiment [2] (setting [6]) was 6.00 to 7.00 throughout.
Consider `CC(=O)N1CCN(c2cccc(Nc3ncc(F)c(NC4CCCC4C(N)=O)n3)c2)CC1` (stereo not shown) [compound 197, N2-[3-(4-Acetylpiperazino)phenyl]-N4-(2-carboxamidocyclopentyl)-5-fluoro-2,4-pyrimidinediamine], for which the values for the pIC50 in experiment [1] (setting [5]) and in experiment [2] (setting [6]) were 5.00 to 6.00 and 6.00 to 7.00, respectively.
In the case of `NC(=O)C1CCCC1Nc1nc(Nc2ccc(N3CCOCC3)cc2)ncc1F` (stereo not shown) [compound 198, N4-(2-Carboxamidocyclopentyl)-5-fluoro-N2-(4-morpholinophenyl)-2,4-pyrimidinediamine], the pIC50 in experiment [1] (setting [5]) and in experiment [2] (setting [6]) was 6.00 to 7.00 throughout.
Turning to `CCOC(=O)N1CCN(c2ccc(Nc3ncc(F)c(NC4CCCC4C(N)=O)n3)cc2)CC1` (stereo not shown) [compound 199, N4-(2-Carboxamidocyclopentyl)-N2-[4-(4-ethoxycarbonylpiperazino)phenyl]-5-fluoro-2,4-pyrimidinediamine], the pIC50 in experiment [1] (setting [5]) and in experiment [2] (setting [6]) was 6.00 to 7.00 throughout.
As for `NC(=O)C1CCCC1Nc1nc(Nc2cccc(N3CCOCC3)c2)ncc1F` (stereo not shown) [compound 200, N4-(2-Carboxamidocyclopentyl)-5-fluoro-N2-(3-morpholinophenyl)-2,4-pyrimidinediamine], the pIC50 in experiment [1] (setting [5]) was 6.00 to 7.00; in experiment [2] (setting [6]) it was 5.00 to 6.00.
Regarding `CCOC(=O)N1CCN(c2cccc(Nc3ncc(F)c(NC4CCCC4C(N)=O)n3)c2)CC1` (stereo not shown) [compound 201, N4-(2-Carboxamidocyclopentyl)-N2-[3-(4-ethoxycarbonylpiperazino)phenyl]-5-fluoro-2,4-pyrimidinediamine], the pIC50 was 6.00 to 7.00 in experiment [1] (setting [5]) and 5.00 to 6.00 in experiment [2] (setting [6]).
For `CN1CCN(c2ccc(Nc3ncc(F)c(NC4CCCC4C(N)=O)n3)cc2Cl)CC1` (stereo not shown) [compound 202, N4-(2-Carboxamidocyclopentyl)-N2-[3-chloro-4-(4-methylpiperazino)phenyl]-5-fluoro-2,4-pyrimidinediamine], the pIC50 in experiment [1] (setting [5]) and in experiment [2] (setting [6]) was 6.00 to 7.00 each time.
For `CN1CCN(c2ccc(Nc3ncc(F)c(NC4CCCC4C(N)=O)n3)cc2)CC1` (stereo not shown) [compound 203, N4-(2-Carboxamidocyclopentyl)-5-fluoro-N2-[4-(4-methylpiperazino)phenyl]-2,4-pyrimidinediamine Monohydrochloride Salt], the pIC50 in experiment [1] (setting [7]) and in experiment [2] (setting [8]) was 6.00 to 7.00 each time.
Turning to `CN1CCN(c2ccc(Nc3ncc(F)c(NC4CCCC4C(N)=O)n3)cc2C(F)(F)F)CC1` (stereo not drawn) [compound 204, (cis)-N4-(2-Carboxamidocyclopent-1-yl)-5-fluoro-N2-[4-(4-methylpiperazino)-3-trifluoromethylphenyl]-1,4-pyrimidinediamine], the pIC50 was 6.00 to 7.00 in experiment [1] (setting [5]) and 5.00 to 6.00 in experiment [2] (setting [6]).
As for `CN1CCN(c2ccc(Nc3ncc(F)c(NC4CCCC4C(N)=O)n3)cc2Cl)CC1` (stereo not drawn) [compound 205, (cis)-N4-(2-Carboxamidocyclopent-1-yl)-N2-[3-chloro-4-(4-methylpiperazino)phenyl]-5-fluoro-2,4-pyrimidinediamine], the pIC50 in experiment [1] (setting [7]) and in experiment [2] (setting [8]) was 6.00 to 7.00 in each case.
Consider `Cc1cc(Nc2ncc(F)c(NC3CCCC3C(N)=O)n2)ccc1N1CCN(C)CC1` (stereo not drawn) [compound 206, (cis)-N4-(2-Carboxamidocyclopent-1-yl)-5-fluoro-N2-[3-methyl-4-(4-methylpiperazino)phenyl]-2,4-pyrimidinediamine], for which the pIC50 in experiment [1] (setting [5]) is 6.00 to 7.00; in experiment [1] (Homo sapiens, A549, A549, read-out: In Vitro IC50), at least 6.00; in experiment [2] (setting [6]) it was 6.00 to 7.00.
Consider `CN1CCN(c2ccc(Nc3ncc(F)c(NC4CCCC4C(N)=O)n3)cc2C(F)(F)F)CC1` (stereo not drawn) [compound 207, (cis)-N4-(2-Carboxamidocyclopent-1-yl)-5-fluoro-N2-[4-(4-methylpiperazino)-3-trifluoromethylphenyl]-2,4-pyrimidinediamine Bis Hydrogen Chloride Salt], for which the results for the pIC50 in experiment [1] (setting [7]) and in experiment [2] (setting [8]) were 6.00 to 7.00 and 5.00 to 6.00, respectively.
For `COC(=O)[C@H]1CCC[C@@H]1Nc1nc(Nc2ccc(N3CCN(C)CC3)c(C)c2)ncc1F` [compound 208, (1S,2S)-5-fluoro-N4-(2-methoxycarbonylcyclopent-1-yl)-N2-[3-methyl-4-(4-methylpiperazino)phenyl]-2,4-pyrimidinediamine], the pIC50 in experiment [1] (setting [5]) and in experiment [2] (setting [6]) was 5.00 to 6.00 throughout.
With `Cc1cc(Nc2ncc(F)c(N[C@H]3CCC[C@@H]3C(=O)O)n2)ccc1N1CCN(C)CC1` [compound 209, (1S,2S)-5-fluoro-N4-(2-hydroxycarbonylcyclopent-1-yl)-N2-[3-methyl-4-(4-methylpiperazino)phenyl]-2,4-pyrimidinediamine], the pIC50 in experiment [1] (setting [5]) and in experiment [2] (setting [6]) was under 5.00 in each case.
As to `CCOC(=O)[C@@H]1CCC[C@H]1Nc1nc(Nc2ccc(N3CCN(C)CC3)c(C)c2)ncc1F` [compound 210, (1R,2R)-N4-(2-Ethoxycarbonylcyclopent-1-yl)-5-fluoro-N2-{3-methyl-4-(4-methylpiperazino)phenyl]-2,4-pyrimidinediamine], the pIC50 in experiment [1] (setting [5]) and in experiment [2] (setting [6]) was 5.00 to 6.00 each time.
As to `Cc1cc(Nc2ncc(F)c(N[C@@H]3CCC[C@H]3C(=O)O)n2)ccc1N1CCN(C)CC1` [compound 211, (1R,2R)-5-fluoro-N4-(2-hydroxycarbonylcyclopent-1-yl)-N2-[3-methyl-4-(4-methylpiperazino)phenyl]-2,4-pyrimidinediamine], the pIC50 in experiment [1] (setting [5]) and in experiment [2] (setting [6]) was under 5.00 in each case.
As to `Cc1ccc(Nc2ncc(F)c(NC3CCCC3C(N)=O)n2)cc1` (stereo not drawn) [compound 212, (cis)-N4-(2-Carboxamidocyclopent-1-yl)-5-fluoro-N2-(4-methylphenyl)-2,4-pyrimidinediamine], the pIC50 in experiment [1] (setting [5]) and in experiment [2] (setting [6]) was 5.00 to 6.00 in each case.
As to `Cc1cc(Nc2ncc(F)c(NC3CCCC3C(N)=O)n2)cc(C)c1O` (stereo not drawn) [compound 213, (cis)-N4-(2-Carboxamidocyclopent-1-yl)-N2-(3,5-dimethyl-4-hydroxyphenyl)-5-fluoro-2,4-pyrimidinediamine], the pIC50 in experiment [1] (setting [5]) and in experiment [2] (setting [6]) was 6.00 to 7.00 each time.
Take `COC(=O)[C@H]1CC[C@@H](Nc2nc(Nc3ccc(N4CCN(C)CC4)c(C)c3)ncc2F)C1` [compound 214, (1R,3S)-N4-(3-Methoxycarbonylcyclopent-1-yl)-5-fluoro-N2-[3-methyl-4-(4-methylpiperazin-1-yl)phenyl]-2,4-pyrimidinediamine]: the pIC50 in experiment [1] (setting [5]) and in experiment [2] (setting [6]) was 5.00 to 6.00 each time.
For `COC(=O)[C@@H]1CC[C@H](Nc2nc(Nc3ccc(N4CCN(C)CC4)c(C)c3)ncc2F)C1` [compound 215, (1S,3R)-N4-(3-Methoxycarbonylcyclopent-1-yl)-5-fluoro-N2-[3-methyl-4-(4-methylpiperazin-1-yl)phenyl]-2,4-pyrimidinediamine], the pIC50 in experiment [1] (setting [5]) and in experiment [2] (setting [6]) was 5.00 to 6.00 in each case.

Source of the values: patent US7868013B2, “Cycloalkyl substituted pyrimidinediamine compounds and their uses” (Rigel Pharmaceuticals, Inc., priority 2004, dated 2011).
